PubChem BioAssay AID2060492 (Molecular Pharmacology Branch, DTP, NCI, 2025)

Test system: 695427-040-R-J1-PDC complex spheroids, viability percent T/C
Assay: Anticancer human tumor 695427-040-R-J1-PDC patient-derived colon adenocarcinoma cell line growth inhibition [GQUAD]
Conditions: for IC50: curve of first compound; for viability, T/C: stronger effect = lower value
Summary of the method: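 Multi-cell-type spheroids of tumor cells with HUVEC and mesenchymal stem cells, treated with drug combinations. Concentrations descend in half-log steps from near clinical Cmax, or from 10 microM where Cmax is unknown; viability read-out.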

[1] = second compound 0.0316 µM, first compound 0.0316 µM
[2] = second compound 0.0316 µM, first compound 0.1 µM
[3] = second compound 0.0316 µM, first compound 0.316 µM
[4] = second compound 0.0316 µM, first compound 1 µM
[5] = second compound 0.0316 µM, first compound 3.16 µM
[6] = second compound 0.0316 µM, first compound 10 µM
[7] = second compound 0.1 µM, first compound 0.0316 µM
[8] = second compound 0.1 µM, first compound 0.1 µM
[9] = second compound 0.1 µM, first compound 0.316 µM
[10] = second compound 0.1 µM, first compound 1 µM
[11] = second compound 0.1 µM, first compound 3.16 µM
[12] = second compound 0.1 µM, first compound 10 µM
[13] = second compound 0.316 µM, first compound 0.0316 µM
[14] = second compound 0.316 µM, first compound 0.1 µM
[15] = second compound 0.316 µM, first compound 0.316 µM
[16] = second compound 0.316 µM, first compound 1 µM
[17] = second compound 0.316 µM, first compound 3.16 µM
[18] = second compound 0.316 µM, first compound 10 µM
[19] = second compound 1 µM, first compound 0.0316 µM
[20] = second compound 1 µM, first compound 0.1 µM
[21] = second compound 1 µM, first compound 0.316 µM
[22] = second compound 1 µM, first compound 1 µM
[23] = second compound 1 µM, first compound 3.16 µM
[24] = second compound 1 µM, first compound 10 µM
[25] = second compound 3.16 µM, first compound 0.0316 µM
[26] = second compound 3.16 µM, first compound 0.1 µM
[27] = second compound 3.16 µM, first compound 0.316 µM
[28] = second compound 3.16 µM, first compound 1 µM
[29] = second compound 3.16 µM, first compound 3.16 µM
[30] = second compound 3.16 µM, first compound 10 µM
[31] = second compound 10 µM, first compound 0.0316 µM
[32] = second compound 10 µM, first compound 0.1 µM
[33] = second compound 10 µM, first compound 0.316 µM
[34] = second compound 10 µM, first compound 1 µM
[35] = second compound 10 µM, first compound 3.16 µM
[36] = second compound 10 µM, first compound 10 µM
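Further: spheroids exposed to compounds for seven days before readout.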

`CC(C)n1c(=O)n(C)c2cnc3cc(F)c(-c4ccc(OCCCN5CCCCC5)nc4)cc3c21` + Cc1cnc(CNC(=O)c2c(=O)c3ccc(N4CCCN(C)CC4)nc3n3c2sc2ccccc23)cn1 was tested, and the IC50 (second compound 0.0316 µM) was > 10000 nM, the IC50 (second compound 0.1 µM) was > 10000 nM and the IC50 (second compound 0.316 µM) was > 10000 nM. For the same compound, the IC50 (second compound 1 µM) was 7260 nM, the IC50 (second compound 3.16 µM) was 2610 nM and the IC50 (second compound 10 µM) was < 31.6 nM. The viability, T/C [1] was 80.7%, the viability, T/C [2] was 80.8% and the viability, T/C [3] was 88%. It also gave a viability, T/C [4] of 80.9%, a viability, T/C [5] of 84.6% and a viability, T/C [6] of 56%. For the same compound, the viability, T/C [7] was 87.1%, the viability, T/C [8] was 76.8% and the viability, T/C [9] was 91.7%. The viability, T/C [10] was 66.3%, the viability, T/C [11] was 84.6% and the viability, T/C [12] was 51.5%. It also gave a viability, T/C [13] of 89%, a viability, T/C [14] of 49.6% and a viability, T/C [15] of 75.8%. For the same compound, the viability, T/C [16] was 71.6%, the viability, T/C [17] was 85.4% and the viability, T/C [18] was 56.3%. The viability, T/C [19] was 90%, the viability, T/C [20] was 64.4% and the viability, T/C [21] was 69.9%. For the same compound, the viability, T/C [22] was 68.6%, the viability, T/C [23] was 73.5% and the viability, T/C [24] was 41.1%. The viability, T/C [25] was 51.5%, the viability, T/C [26] was 47.4% and the viability, T/C [27] was 57.8%. For the same compound, the viability, T/C [28] was 54.6%, the viability, T/C [29] was 49% and the viability, T/C [30] was 20.4%. The viability, T/C [31] was 43.5%, the viability, T/C [32] was 40.3% and the viability, T/C [33] was 45.8%. It also gave a viability, T/C [34] of 42.6%, a viability, T/C [35] of 43.1% and a viability, T/C [36] of 0.95%.

`CC1COCCN1c1cc(C2(O)CC3CCC(C2)O3)c2cnn(-c3ccn[nH]3)c2n1` (stereo unspecified) + Cc1cnc(CNC(=O)c2c(=O)c3ccc(N4CCCN(C)CC4)nc3n3c2sc2ccccc23)cn1 showed an IC50 (second compound 0.0316 µM) of 277 nM, an IC50 (second compound 0.1 µM) of 220 nM and an IC50 (second compound 0.316 µM) of 91.1 nM. The IC50 (second compound 1 µM) was < 31.6 nM, the IC50 (second compound 3.16 µM) was < 31.6 nM and the IC50 (second compound 10 µM) was < 31.6 nM. It also gave a viability, T/C [1] of 75.1%, a viability, T/C [2] of 63% and a viability, T/C [3] of 49.8%. The viability, T/C [4] was 31.1%, the viability, T/C [5] was 26% and the viability, T/C [6] was 18.1%. For the same compound, the viability, T/C [7] was 79%, the viability, T/C [8] was 57% and the viability, T/C [9] was 47%. It also gave a viability, T/C [10] of 34.1%, a viability, T/C [11] of 30.3% and a viability, T/C [12] of 20.9%. For the same compound, the viability, T/C [13] was 81.7%, the viability, T/C [14] was 41.3% and the viability, T/C [15] was 40.2%. For the same compound, the viability, T/C [16] was 26.8%, the viability, T/C [17] was 26.4% and the viability, T/C [18] was 18.4%. It also gave a viability, T/C [19] of 38.5%, a viability, T/C [20] of 41.1% and a viability, T/C [21] of 31.5%. The viability, T/C [22] was 29.7%, the viability, T/C [23] was 28.2% and the viability, T/C [24] was 14.3%. The viability, T/C [25] was 30.2%, the viability, T/C [26] was 35% and the viability, T/C [27] was 28.5%. It also gave a viability, T/C [28] of 16.9%, a viability, T/C [29] of 19.5% and a viability, T/C [30] of 4.04%. It also gave a viability, T/C [31] of 22.1%, a viability, T/C [32] of 22.2% and a viability, T/C [33] of 19.3%. It also gave a viability, T/C [34] of 15.2%, a viability, T/C [35] of 8.74% and a viability, T/C [36] of 0.42%.

In the case of `CCc1c2c(nc3ccc(O)cc13)-c1cc3c(c(=O)n1C2)COC(=O)[C@]3(O)CC` + Cc1cnc(CNC(=O)c2c(=O)c3ccc(N4CCCN(C)CC4)nc3n3c2sc2ccccc23)cn1, the IC50 (second compound 0.0316 µM) is reported as 81.3 nM, the IC50 (second compound 0.1 µM) is reported as 49 nM and the IC50 (second compound 0.316 µM) is reported as 27.3 nM. The IC50 (second compound 1 µM) was 26.1 nM, the IC50 (second compound 3.16 µM) was 3.02 nM and the IC50 (second compound 10 µM) was < 0.999 nM. The viability, T/C (second compound 0.0316 µM, first compound 0.000999 µM) was 82.6%, the viability, T/C (second compound 0.0316 µM, first compound 0.00316 µM) was 75.7% and the viability, T/C (second compound 0.0316 µM, first compound 0.00999 µM) was 81.1%. The viability, T/C [1] was 57.9%, the viability, T/C (second compound 0.0316 µM, first compound 0.0999 µM) was 50.1% and the viability, T/C [3] was 34.5%. It also gave a viability, T/C (second compound 0.1 µM, first compound 0.000999 µM) of 91.4%, a viability, T/C (second compound 0.1 µM, first compound 0.00316 µM) of 68.6% and a viability, T/C (second compound 0.1 µM, first compound 0.00999 µM) of 73.2%. For the same compound, the viability, T/C [7] was 47.5%, the viability, T/C (second compound 0.1 µM, first compound 0.0999 µM) was 47.5% and the viability, T/C [9] was 33.8%. It also gave a viability, T/C (second compound 0.316 µM, first compound 0.000999 µM) of 85.3%, a viability, T/C (second compound 0.316 µM, first compound 0.00316 µM) of 57% and a viability, T/C (second compound 0.316 µM, first compound 0.00999 µM) of 63.6%. It also gave a viability, T/C [13] of 49.8%, a viability, T/C (second compound 0.316 µM, first compound 0.0999 µM) of 43.2% and a viability, T/C [15] of 31.1%. It also gave a viability, T/C (second compound 1 µM, first compound 0.000999 µM) of 66.1%, a viability, T/C (second compound 1 µM, first compound 0.00316 µM) of 63.6% and a viability, T/C (second compound 1 µM, first compound 0.00999 µM) of 53.1%. The viability, T/C [19] was 47.7%, the viability, T/C (second compound 1 µM, first compound 0.0999 µM) was 40.4% and the viability, T/C [21] was 19.1%. For the same compound, the viability, T/C (second compound 3.16 µM, first compound 0.000999 µM) was 55.1%, the viability, T/C (second compound 3.16 µM, first compound 0.00316 µM) was 47.3% and the viability, T/C (second compound 3.16 µM, first compound 0.00999 µM) was 44.8%. For the same compound, the viability, T/C [25] was 38.9%, the viability, T/C (second compound 3.16 µM, first compound 0.0999 µM) was 31.2% and the viability, T/C [27] was 7.33%. For the same compound, the viability, T/C (second compound 10 µM, first compound 0.000999 µM) was 39.7%, the viability, T/C (second compound 10 µM, first compound 0.00316 µM) was 33.7% and the viability, T/C (second compound 10 µM, first compound 0.00999 µM) was 40.2%. The viability, T/C [31] was 37.7%, the viability, T/C (second compound 10 µM, first compound 0.0999 µM) was 9.89% and the viability, T/C [33] was 0.52%.
